Assay results from patent publication US20020019536A1, “NEW URETHANES, THIO AND DITHIO ANALOGUES AND THEIR USE AS INHIBITORS OF CHOLESTEROL BIOSYNTHESIS” (priority 1997, published 2002).
One block for each compound: values may come before it.

Experiments:
[1] = target: T1, 2,3-epoxysqualene-lanosterol-cyclase (Rattus norvegicus, UniProt P48450); experiment: In-vivo activity in the rat after oral administration: 2,3-epoxysqualene level in the liver
T1 construct: Measuring the in-vivo Activity in the Rat after Oral Administration; from tissue; host or cells: living rat; 2,3-epoxysqualene measured in the liver
T1 sequence (P48450 1-733): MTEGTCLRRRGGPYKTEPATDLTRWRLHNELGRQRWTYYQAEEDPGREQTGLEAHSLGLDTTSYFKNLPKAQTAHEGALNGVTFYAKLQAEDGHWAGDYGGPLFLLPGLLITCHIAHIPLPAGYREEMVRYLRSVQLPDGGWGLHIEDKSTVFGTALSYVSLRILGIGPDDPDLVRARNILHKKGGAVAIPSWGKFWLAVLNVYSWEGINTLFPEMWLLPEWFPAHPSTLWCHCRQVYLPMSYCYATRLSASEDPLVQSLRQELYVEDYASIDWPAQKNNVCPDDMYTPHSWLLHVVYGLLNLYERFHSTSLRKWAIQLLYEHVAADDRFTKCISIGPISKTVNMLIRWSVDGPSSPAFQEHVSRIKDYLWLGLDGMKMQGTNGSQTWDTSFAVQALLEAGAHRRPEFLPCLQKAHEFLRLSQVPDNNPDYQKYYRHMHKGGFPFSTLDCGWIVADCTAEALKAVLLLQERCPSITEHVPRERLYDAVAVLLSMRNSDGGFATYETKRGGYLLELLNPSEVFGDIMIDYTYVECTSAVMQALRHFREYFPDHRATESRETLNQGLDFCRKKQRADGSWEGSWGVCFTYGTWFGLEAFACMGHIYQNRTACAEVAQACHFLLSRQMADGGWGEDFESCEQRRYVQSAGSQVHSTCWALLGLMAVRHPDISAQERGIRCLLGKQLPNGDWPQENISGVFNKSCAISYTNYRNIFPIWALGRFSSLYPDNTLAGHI
Experimental: II. Measuring the in-vivo Activity in the Rat after Oral Administration
Inhibiting the enzyme 2,3-epoxysqualene-lanosterol-cyclase causes an increase in the 2,3-epoxisqualene levels in the liver and plasma. The quantity of 2,3-epoxysqualene formed therefore serves as a direct measurement of the potency on the animal as a whole. The amounts were determined using the method described in J. Lipid. Res. 38, 564-575, [1997] at t=3 or 8 hours after administration of the substance in concentrations of c=0.01, 0.03, 0.1, 0.3 and 1.0 mg/kg. Table 3 which follows gives the results obtained for the abovementioned substances A, B, C, E, G, H, O and R by way of example.
In the control animals there were no measurable 2,3-epoxisqualene levels under these conditions.

[2] = system: 14C-acetate incorporation into the steroids which can be precipitated with digitonin (cholesterol biosynthesis); experiment: Inhibition of 14C-acetate incorporation into the steroids which can be precipitated with digitonin; format: cell-based; details: for IC50: 14C-acetate incorporation
From the text: I. Measuring the Inhibition of ^14C-acetate incorporation into the steroids which can be precipitated with digitonin: The inhibitory effect was investigated using the method described in J. Lipid. Res. 37, 148-157 [1996] at test concentrations of 10^−8 and 10^−9 mol/l.

[3] = system: Sacch. carisbergensis ATCC 9080; experiment: Fungistatic activity, series dilution test; format: cell-based; details: Sabouraud broth, 2 to 4 days at 26° C.
Experimental: (§1) V. Determining the Fungistatic Activity
(§2) The fungistatic activity was determined by the series dilution test (microtitre system). Sabouraud broth was used as the nutrient medium. The inoculum amounted to about 10^4 to 10^5 CFU/ml (CFU=colony-forming units); the incubation period was 2 to 4 days at 26° C.
(§3) The lowest concentration which allows no visible growth (minimum inhibitory concentration MIC) was determined.
(§4) The abovementioned compounds B, E, G, I, K, L, N, Q and R were tested. The MIC is given in μg/ml.

[4] = system: Trich. mentagrophytes ATCC 9129; experiment: Fungistatic activity, series dilution test; format: cell-based; details: Sabouraud broth, 2 to 4 days at 26° C.
Experimental: as §1, §2, §3, §4

[5] = system: Cand. albicans ATCC 10231; experiment: Fungistatic activity, series dilution test; format: cell-based; details: Sabouraud broth, 2 to 4 days at 26° C.
Experimental: as §1, §2, §3, §4

Rhod. rubra 49 = experiment: Fungistatic activity, series dilution test; format: cell-based; details: Sabouraud broth, 2 to 4 days at 26° C.
Experimental: as §1, §2, §3, §4

Asp. niger ATCC 16404 = experiment: Fungistatic activity, series dilution test; format: cell-based; details: Sabouraud broth, 2 to 4 days at 26° C.
Experimental: as §1, §2, §3, §4

Pen. notatum CBS 19746 = experiment: Fungistatic activity, series dilution test; format: cell-based; details: Sabouraud broth, 2 to 4 days at 26° C.
Experimental: as §1, §2, §3, §4

[6] = Lipid reduction in the normolipaemic golden hamster; format: in vivo; details: dose 5.87 mg/kg/day, compared with control group
Experimental: III. Lipid Reduction in the Normolipaemic Golden Hamster This was determined using the method described in J. Lipid. Res. 38, 564-575, (1997). At the end of the experiment the total cholesterol, β-lipoprotein-cholesterol and HDL-cholesterol were determined and compared with the values of a control group which were fed without any test substance. The lipid-lowering activity of the abovementioned compounds E, G and I was tested.

[7] = 0.01 mg/kg oral, 3 h after administration
[8] = 0.01 mg/kg oral, 8 h after administration
[9] = 0.03 mg/kg oral, 3 h after administration
[10] = 0.03 mg/kg oral, 8 h after administration
[11] = 0.1 mg/kg oral, 3 h after administration
[12] = 0.1 mg/kg oral, 8 h after administration
[13] = 1.0 mg/kg oral, 3 h after administration
[14] = 1.0 mg/kg oral, 8 h after administration
[15] = 0.3 mg/kg oral, 3 h after administration
[16] = 0.3 mg/kg oral, 8 h after administration

2,3-epoxysqualene concentration in the liver (rat) [1, 7]: 0.0 µg/g | 2,3-epoxysqualene concentration in the liver (rat) [1, 8]: 14.6 µg/g | 2,3-epoxysqualene concentration in the liver (rat) [1, 9]: 11.8 µg/g | 2,3-epoxysqualene concentration in the liver (rat) [1, 10]: 66.0 µg/g | 2,3-epoxysqualene concentration in the liver (rat) [1, 11]: 62.6 µg/g | 2,3-epoxysqualene concentration in the liver (rat) [1, 12]: 312.5 µg/g | 2,3-epoxysqualene concentration in the liver (rat) [1, 13]: 136.5 µg/g | 2,3-epoxysqualene concentration in the liver (rat) [1, 14]: 291.9 µg/g
SMILES: CN(C)Cc1ccc([C@H]2CC[C@H](N(C)C(=S)Sc3ccc(Cl)cc3)CC2)cc1 [A, trans-S-(4-chlorophenyl)-N-4-[4-(dimethylaminomethyl)-phenyl]cyclohexyl-N-methyldithiocarbamate]
percentage inhibition of 14C-acetate incorporation ([2]; test concentration 10^−8 mol/l): −85% | percentage inhibition of 14C-acetate incorporation ([2]; test concentration 10^−9 mol/l): −39%

2,3-epoxysqualene concentration in the liver (rat) [1, 7]: 0.0 µg/g | 2,3-epoxysqualene concentration in the liver (rat) [1, 8]: 84.8 µg/g | 2,3-epoxysqualene concentration in the liver (rat) [1, 9]: 33.1 µg/g | 2,3-epoxysqualene concentration in the liver (rat) [1, 10]: 57.8 µg/g | 2,3-epoxysqualene concentration in the liver (rat) [1, 11]: 47.0 µg/g | 2,3-epoxysqualene concentration in the liver (rat) [1, 12]: 133.1 µg/g | 2,3-epoxysqualene concentration in the liver (rat) [1, 15]: 77.8 µg/g | 2,3-epoxysqualene concentration in the liver (rat) [1, 16]: 196.5 µg/g | 2,3-epoxysqualene concentration in the liver (rat) [1, 13]: 68.1 µg/g | 2,3-epoxysqualene concentration in the liver (rat) [1, 14]: 243.9 µg/g
SMILES: CN(C)Cc1ccc([C@H]2CC[C@H](N(C)C(=S)SCc3ccc(F)cc3)CC2)cc1.Cl [C, trans-S-(4-fluorobenzyl)-N-4-[4-(dimethylaminomethyl)-phenyl]cyclohexyl-N-methyldithiocarbamate-hydrochloride]
percentage inhibition of 14C-acetate incorporation ([2]; test concentration 10^−8 mol/l): −87% | percentage inhibition of 14C-acetate incorporation ([2]; test concentration 10^−9 mol/l): −52%

SMILES: CN(C)Cc1ccc([C@H]2CC[C@H](N(C)C(=S)SCc3ccc(Cl)cc3)CC2)cc1.Cl [D, trans-S-(4-chlorobenzyl)-N-4-[4-(dimethylaminomethyl)-phenyl]cyclohexyl-N-methyldithiocarbamate-hydrochloride]
percentage inhibition of 14C-acetate incorporation ([2]; test concentration 10^−8 mol/l): −85% | percentage inhibition of 14C-acetate incorporation ([2]; test concentration 10^−9 mol/l): −51%

SMILES: CN(C)Cc1ccc([C@H]2CC[C@@H](N(C)C(=S)SCc3ccccc3)CC2)cc1.Cl [F, cis-S-benzyl-N-4-[4-(dimethylaminomethyl)phenyl]-cyclohexyl-N-methyldithiocarbamate-hydrochloride]
percentage inhibition of 14C-acetate incorporation ([2]; test concentration 10^−8 mol/l): −83% | percentage inhibition of 14C-acetate incorporation ([2]; test concentration 10^−9 mol/l): −40%

2,3-epoxysqualene concentration in the liver (rat) [1, 7]: 2.9 µg/g | 2,3-epoxysqualene concentration in the liver (rat) [1, 8]: 31.3 µg/g | 2,3-epoxysqualene concentration in the liver (rat) [1, 9]: 25.7 µg/g | 2,3-epoxysqualene concentration in the liver (rat) [1, 10]: 25.3 µg/g | 2,3-epoxysqualene concentration in the liver (rat) [1, 11]: 117.7 µg/g | 2,3-epoxysqualene concentration in the liver (rat) [1, 12]: 202.3 µg/g | 2,3-epoxysqualene concentration in the liver (rat) [1, 15]: 70.3 µg/g | 2,3-epoxysqualene concentration in the liver (rat) [1, 16]: 112.6 µg/g
SMILES: CN(C)Cc1ccc([C@H]2CC[C@H](N(C)C(=O)Sc3ccc(Cl)cc3)CC2)cc1.Cl [H, trans-S-(4-chlorophenyl)-N-4-[4-(dimethylaminomethyl)-phenyl]cyclohexyl-N-methylthiocarbamate-hydrochloride]
IC50 [2]: 0.5 nM | percentage inhibition of 14C-acetate incorporation ([2]; test concentration 10^−8 mol/l): −87% | percentage inhibition of 14C-acetate incorporation ([2]; test concentration 10^−9 mol/l): −65%

SMILES: CN(C(=O)Oc1ccc(Cl)cc1)[C@H]1CC[C@H](c2ccc(CN3CCCC3)cc2)CC1.Cl [K, trans-O-(4-chlorophenyl)-N-methyl-N-4-[4-(pyrrolidinomethyl)phenyl]cyclohexylcarbamate-hydrochloride]
percentage inhibition of 14C-acetate incorporation ([2]; test concentration 10^−8 mol/l): −81% | percentage inhibition of 14C-acetate incorporation ([2]; test concentration 10^−9 mol/l): −53% | MIC Sacc. [3]: 128 µg/mL | MIC Trich. [4]: 2 µg/mL | MIC Cand. [5]: 64 µg/mL | MIC Rhod. (Rhod. rubra 49): 32 µg/mL | MIC Asp. (Asp. niger ATCC 16404): 16 µg/mL | MIC Pen. (Pen. notatum CBS 19746): 8 µg/mL

SMILES: CCN(CC)Cc1ccc([C@H]2CC[C@H](N(C)C(=O)Oc3ccc(Cl)cc3)CC2)cc1.Cl [L, trans-O-(4-chlorophenyl)-N-4-[4-(diethylaminomethyl)-phenyl]cyclohexyl-N-methylcarbamate-hydrochloride]
percentage inhibition of 14C-acetate incorporation ([2]; test concentration 10^−8 mol/l): −83% | percentage inhibition of 14C-acetate incorporation ([2]; test concentration 10^−9 mol/l): −53% | MIC Sacc. [3]: 128 µg/mL | MIC Trich. [4]: 1 µg/mL | MIC Cand. [5]: 32 µg/mL | MIC Rhod. (Rhod. rubra 49): 8 µg/mL | MIC Asp. (Asp. niger ATCC 16404): 32 µg/mL | MIC Pen. (Pen. notatum CBS 19746): 64 µg/mL

SMILES: C=CCN(C)Cc1ccc([C@H]2CC[C@H](N(C)C(=O)Oc3ccc(Cl)cc3)CC2)cc1 [M, trans-O-(4-chlorophenyl)-N-methyl-N-4-[4-(N-methyl-N-allylaminomethyl)phenyl]cyclohexylcarbamate]
percentage inhibition of 14C-acetate incorporation ([2]; test concentration 10^−8 mol/l): −93% | percentage inhibition of 14C-acetate incorporation ([2]; test concentration 10^−9 mol/l): −74%

SMILES: Cc1ccc(OC(=O)N(C)[C@H]2CC[C@H](c3ccc(CN(C)C)cc3)CC2)cc1.Cl [O, trans-N-4-[4-(dimethylaminomethyl)phenyl]cyclohexyl-N-methyl-O-(4-methylphenyl)carbamate-hydrochloride]
HDL-cholesterol [6]: −12.7% | Total cholesterol [6]: −17.3% | β-Lipoprotein-cholesterol [6]: −22.5% | 2,3-epoxysqualene concentration in the liver (rat) [1, 11]: 53.4 µg/g | 2,3-epoxysqualene concentration in the liver (rat) [1, 12]: 94.3 µg/g | 2,3-epoxysqualene concentration in the liver (rat) [1, 15]: 72.6 µg/g | 2,3-epoxysqualene concentration in the liver (rat) [1, 16]: 113.2 µg/g | 2,3-epoxysqualene concentration in the liver (rat) [1, 13]: 117.9 µg/g | 2,3-epoxysqualene concentration in the liver (rat) [1, 14]: 224.8 µg/g | IC50 [2]: 0.8 nM | percentage inhibition of 14C-acetate incorporation ([2]; test concentration 10^−8 mol/l): −83% | percentage inhibition of 14C-acetate incorporation ([2]; test concentration 10^−9 mol/l): −57%

SMILES: Cc1ccc(OC(=S)N(C)[C@H]2CC[C@H](c3ccc(CN(C)C)cc3)CC2)cc1.Cl [P, trans-N-4-[4-(dimethylaminomethyl)phenyl]cyclohexyl-N-methyl-O-(4-methylphenyl)thiocarbamate-hydrochloride]
percentage inhibition of 14C-acetate incorporation ([2]; test concentration 10^−8 mol/l): −83% | percentage inhibition of 14C-acetate incorporation ([2]; test concentration 10^−9 mol/l): −60%

SMILES: CN(C)Cc1ccc([C@H]2CC[C@H](N(C)C(=O)c3ccc(Cl)cc3)CC2)cc1 [V, reference compound]
IC50 [2]: 3.8 nM | percentage inhibition of 14C-acetate incorporation ([2]; test concentration 10^−8 mol/l): −59% | percentage inhibition of 14C-acetate incorporation ([2]; test concentration 10^−9 mol/l): −23%

SMILES: Cc1ccc(CC(=O)O[C@H]2CC[C@H](c3ccc(CN(C)C)cc3)CC2)cc1 [W, trans-O-(p-tolylacetyl)-4-(4-dimethylaminomethylphenyl)-cyclohexanol, reference compound]
IC50 [2]: 9.6 nM | inhibition at 0.01 µM ([2]; test concentration 10^−8 mol/l, read-out: percentage inhibition of 14C-acetate incorporation): 72% | inhibition at 0.001 µM ([2]; test concentration 10^−9 mol/l, read-out: percentage inhibition of 14C-acetate incorporation): 21%
